Tests used:
[1] = biological target: human alpha1 nicotinic acetylcholine (nACh) receptor (Homo sapiens, UniProt P02708); assay: Nicotinic acetylcholine receptor antagonism assay, IONFlux automated patch clamp (Example 203); assay type: cell-based; details: for IC50: antagonism of ACh-stimulated human alpha1 nAChR current, patch clamp; for Emax at 10 µM: maximum percentage antagonism at maximum concentration tested 10 μM; for Emax at 10 µM / Emax at 100 µM: read-out: Maximum Response; for Emax at 100 µM: maximum percentage antagonism at maximum concentration tested 100 μM
Method in brief: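 Cells expressing human α1 nAChR were incubated with a compound dose response (top 10 μM or 100 μM), then stimulated with ACh (10 mM), and peak current was read by automated patch clamp. % inhibition was taken against ACh-alone control, corrected for vehicle and run-down, and fit non-linearly for IC50; runs were averaged.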

[2] = tested on: CCR2 expressing cells (CD11b+Ly6c+Hi) in peripheral blood; assay: In vivo depletion assay, flow cytometry of peripheral blood (Example 201); parameters: species or system human CCR2 knock-in mice (C57 background); details: hCCR2 knock-in mice, IV 0.1 mpk compound + 10 mpk anti-cotinine antibody (SEQ ID NO: 13/14), peripheral blood at 48 hr
Method in brief: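 Mice dosed with compound formulated in saline/DMSO/PBS, with anti-cotinine antibody (rabbit variable region, mouse IgG2a Fc) where required, pre-incubated 30 min at room temperature. Terminal peripheral blood RBC-lysed, Fc-blocked, stained for CD45, CD3, CD11b, Ly6C, human CCR2 and 7AAD; percent depletion of CD11b+Ly6c+Hi cells determined by flow cytometry.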

Sequence of human alpha1 nicotinic acetylcholine (nACh) receptor (P02708 21-457): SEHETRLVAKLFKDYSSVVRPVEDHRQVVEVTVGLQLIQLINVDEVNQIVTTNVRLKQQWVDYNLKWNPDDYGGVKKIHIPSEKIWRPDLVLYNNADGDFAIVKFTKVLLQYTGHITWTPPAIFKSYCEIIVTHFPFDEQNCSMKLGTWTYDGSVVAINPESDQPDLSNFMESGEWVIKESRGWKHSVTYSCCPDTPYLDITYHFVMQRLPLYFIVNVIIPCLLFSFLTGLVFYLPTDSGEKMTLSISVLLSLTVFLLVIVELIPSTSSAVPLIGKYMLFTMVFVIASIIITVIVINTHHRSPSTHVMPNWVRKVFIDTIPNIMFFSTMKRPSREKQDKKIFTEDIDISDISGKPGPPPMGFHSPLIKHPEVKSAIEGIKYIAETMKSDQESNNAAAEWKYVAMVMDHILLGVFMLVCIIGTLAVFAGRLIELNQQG
Sequence of human alpha1 nicotinic acetylcholine (nACh) receptor (P11230 24-501 partner): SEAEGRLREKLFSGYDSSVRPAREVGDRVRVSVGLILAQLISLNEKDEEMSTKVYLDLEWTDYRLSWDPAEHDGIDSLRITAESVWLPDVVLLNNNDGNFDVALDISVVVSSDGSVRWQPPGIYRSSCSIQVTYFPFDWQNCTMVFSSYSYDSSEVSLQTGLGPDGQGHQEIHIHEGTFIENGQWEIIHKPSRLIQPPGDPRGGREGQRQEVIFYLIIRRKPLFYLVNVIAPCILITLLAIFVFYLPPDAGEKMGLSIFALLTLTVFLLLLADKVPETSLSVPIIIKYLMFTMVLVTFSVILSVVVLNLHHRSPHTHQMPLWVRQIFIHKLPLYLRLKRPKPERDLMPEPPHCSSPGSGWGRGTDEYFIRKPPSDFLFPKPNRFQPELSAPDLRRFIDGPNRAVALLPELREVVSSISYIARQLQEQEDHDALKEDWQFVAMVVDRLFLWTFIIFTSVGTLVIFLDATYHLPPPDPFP
Sequence of human alpha1 nicotinic acetylcholine (nACh) receptor (Q07001 22-517 partner): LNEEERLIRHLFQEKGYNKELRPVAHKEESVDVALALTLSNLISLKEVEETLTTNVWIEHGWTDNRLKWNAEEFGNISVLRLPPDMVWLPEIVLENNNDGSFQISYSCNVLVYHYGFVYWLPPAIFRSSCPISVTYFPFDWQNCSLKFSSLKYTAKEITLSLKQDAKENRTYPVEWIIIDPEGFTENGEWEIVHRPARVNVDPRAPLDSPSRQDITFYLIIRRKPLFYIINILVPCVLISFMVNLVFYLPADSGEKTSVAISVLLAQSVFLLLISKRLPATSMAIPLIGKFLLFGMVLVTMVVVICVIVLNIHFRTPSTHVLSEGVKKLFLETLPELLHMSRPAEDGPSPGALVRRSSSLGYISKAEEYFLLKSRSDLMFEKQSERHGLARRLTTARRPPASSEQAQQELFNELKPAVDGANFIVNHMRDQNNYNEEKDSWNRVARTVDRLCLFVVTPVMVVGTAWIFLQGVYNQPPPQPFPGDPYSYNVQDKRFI

| SMILES | IC50 [1] | Emax at 10 µM [1] | % Depletion of CCR2 expressing cells [2] | Emax at 100 µM [1] |
| --- | --- | --- | --- | --- |
| CC(C)N(C)[C@@H]1CC[C@H](N2CC[C@H](Nc3ncnc4ccc(C(F)(F)F)cc34)C2=O)[C@H](NC(=O)CCOCCNC(=O)[C@H]2CC[C@@H](NC(=O)COCCNC(=O)[C@H]3CC(=O)N(C)[C@@H]3c3cccnc3)CC2)C1 [Example 107, (2S,3S)-N-(2-(2-(((1S,4R)-4-((2-(3-(((1R,2S,5R)-5-(Isopropyl(methyl)amino)-2-((S)-2-oxo-3-((6-(trifluoromethyl)quinazolin-4-yl)amino)pyrrolidin-1-yl)cyclohexyl)amino)-3-oxopropoxy)ethyl)carbamoyl)cyclohexyl)amino)-2-oxoethoxy)ethyl)-1-methyl-5-oxo-2-(pyridin-3-yl)pyrrolidine-3-carboxamide] | ≥ 10 µM | 12.2% | 96% |  |
| CC(C)N(C)[C@@H]1CC[C@H](N2CC[C@H](Nc3ncnc4ccc(C(F)(F)F)cc34)C2=O)[C@H](NC(=O)COCCNC(=O)COCCNC(=O)COCCNC(=O)[C@H]2CC(=O)N(C)[C@@H]2c2cccnc2)C1 [Example 111, (2S,3S)-N-(17-(((1R,2S,5R)-5-(Isopropyl(methyl)amino)-2-((S)-2-oxo-3-((6-(trifluoromethyl)quinazolin-4-yl)amino)pyrrolidin-1-yl)cyclohexyl)amino)-5,11,17-trioxo-3,9,15-trioxa-6,12-diazaheptadecyl)-1-methyl-5-oxo-2-(pyridin-3-yl)pyrrolidine-3-carboxamide] | 52.9 µM |  | 50% | 67.6% |
| CC(C)N(C)[C@@H]1CC[C@H](N2CC[C@H](Nc3ncnc4ccc(C(F)(F)F)cc34)C2=O)[C@H](NC(=O)[C@H]2CC[C@@H](NC(=O)CCCOCCCCOCCNC(=O)[C@H]3CC(=O)N(C)[C@@H]3c3cccnc3)CC2)C1 [Example 122, (2S,3S)-N-(2-(4-(4-(((1S,4s)-4-(((1R,2S,5R)-5-(Isopropyl(methyl)amino)-2-((S)-2-oxo-3-((6-(trifluoromethyl)quinazolin-4-yl)amino)pyrrolidin-1-yl)cyclohexyl)carbamoyl)cyclohexyl)amino)-4-oxobutoxy)butoxy)ethyl)-1-methyl-5-oxo-2-(pyridin-3-yl)pyrrolidine-3-carboxamide] | ≥ 10 µM | 23% | 94% |  |
| CC(C)N(C)[C@@H]1CC[C@H](N2CC[C@H](Nc3ncnc4ccc(C(F)(F)F)cc34)C2=O)[C@H](NC(=O)CNC(=O)[C@H]2CC[C@@H](NC(=O)CCOCCOCCNC(=O)[C@H]3CC(=O)N(C)[C@@H]3c3cccnc3)CC2)C1 [Example 137, (2S,3S)-N-(2-(2-(3-(((1S,4s)-4-((2-(((1R,2S,5R)-5-(Isopropyl(methyl)amino)-2-((S)-2-oxo-3-((6-(trifluoromethyl)quinazolin-4-yl)amino)pyrrolidin-1-yl)cyclohexyl)amino)-2-oxoethyl)carbamoyl)cyclohexyl)amino)-3-oxopropoxy)ethoxy)ethyl)-1-methyl-5-oxo-2-(pyridin-3-yl)pyrrolidine-3-carboxamide] | 70 µM |  | 89% | 62% |
| CC(C)N(C)[C@@H]1CC[C@H](N2CC[C@H](Nc3ncnc4ccc(C(F)(F)F)cc34)C2=O)[C@H](NC(=O)[C@H]2CC[C@@H](NC(=O)CCOCCNC(=O)CCNC(=O)CCNC(=O)[C@H]3CC(=O)N(C)[C@@H]3c3cccnc3)CC2)C1 [Example 182, (2S,3S)-N-(3-((3-((2-(3-(((1S,4s)-4-(((1R,2S,5R)-5-(Isopropyl(methyl)amino)-2-((S)-2-oxo-3-((6-(trifluoromethyl)quinazolin-4-yl)amino)pyrrolidin-1-yl)cyclohexyl)carbamoyl)cyclohexyl)amino)-3-oxopropoxy)ethyl)amino)-3-oxopropyl)amino)-3-oxopropyl)-1-methyl-5-oxo-2-(pyridin-3-yl)pyrrolidine-3-carboxamide] | 76.4 µM |  | 97% | 61.9% |
| CC(C)N(C)[C@@H]1CC[C@H](N2CC[C@H](Nc3ncnc4ccc(C(F)(F)F)cc34)C2=O)[C@H](NC(=O)CCOCCC(=O)N[C@H]2C[C@@H](C(=O)NCCOCCNC(=O)[C@H]3CC(=O)N(C)[C@@H]3c3cccnc3)C2)C1 [Example 186, (2S,3S)-N-(2-(2-((1S,3R)-3-(3-(3-(((1R,2S,5R)-5-(Isopropyl(methyl)amino)-2-((S)-2-oxo-3-((6-(trifluoromethyl)quinazolin-4-yl)amino)pyrrolidin-1-yl)cyclohexyl)amino)-3-oxopropoxy)propanamido)cyclobutane-1-carboxamido)ethoxy)ethyl)-1-methyl-5-oxo-2-(pyridin-3-yl)pyrrolidine-3-carboxamide] | 31.8 µM |  | 96% | 55.2% |
| CC(C)N(C)[C@@H]1CC[C@H](N2CC[C@H](Nc3ncnc4ccc(C(F)(F)F)cc34)C2=O)[C@H](NC(=O)CCOCCC(=O)N[C@H]2C[C@H](C(=O)NCCOCCNC(=O)[C@H]3CC(=O)N(C)[C@@H]3c3cccnc3)C2)C1 [Example 187] | 71.1 µM |  | 92% | 63.7% |
| CN1C(=O)C[C@H](C(=O)NCCOCCNC(=O)[C@H]2C[C@H](NC(=O)CCOCCC(=O)N[C@@H]3C[C@H](NC(C)(C)C)CC[C@@H]3N3CC[C@H](Nc4ncnc5ccc(C(F)(F)F)cc45)C3=O)C2)[C@H]1c1cccnc1 [Example 188, (2S,3S)-N-(2-(2-((1R,3S)-3-(3-(3-(((1R,2S,5R)-5-(tert-butylamino)-2-((S)-2-oxo-3-((6-(trifluoromethyl)quinazolin-4-yl)amino)pyrrolidin-1-yl)cyclohexyl)amino)-3-oxopropoxy)propanamido)cyclobutane-1-carboxamido)ethoxy)ethyl)-1-methyl-5-oxo-2-(pyridin-3-yl)pyrrolidine-3-carboxamide] | 85.9 µM |  | 91% | 53.5% |
| CC(C)N(C)[C@@H]1CC[C@H](N2CC[C@H](Nc3ncnc4ccc(C(F)(F)F)cc34)C2=O)[C@H](NC(=O)CCCN2CCC3(CCN(CCCNC(=O)[C@H]4CC(=O)N(C)[C@@H]4c4cccnc4)CC3)CC2)C1 [Example 191, (2S,3S)-N-(3-(9-(4-(((1R,2S,5R)-5-(Isopropyl(methyl)amino)-2-((S)-2-oxo-3-((6-(trifluoromethyl)quinazolin-4-yl)amino)pyrrolidin-1-yl)cyclohexyl)amino)-4-oxobutyl)-3,9-diazaspiro[5.5]undecan-3-yl)propyl)-1-methyl-5-oxo-2-(pyridin-3-yl)pyrrolidine-3-carboxamide] | 2.95 µM | 74% | 69% |  |
| CC(C)N(C)[C@@H]1CC[C@H](N2CC[C@H](Nc3ncnc4ccc(C(F)(F)F)cc34)C2=O)[C@H](NC(=O)[C@H]2CC[C@H](C(=O)NCCCOCCCCOCCCNC(=O)[C@H]3CC(=O)N(C)[C@@H]3c3cccnc3)CC2)C1 [Example 194, (1r,4R)-N^1-((1R,2S,5R)-5-(Isopropyl(methyl)amino)-2-((S)-2-oxo-3-((6-(trifluoromethyl)quinazolin-4-yl)amino)pyrrolidin-1-yl)cyclohexyl)-N^4-(3-(4-(3-((2S,3S)-1-methyl-5-oxo-2-(pyridin-3-yl)pyrrolidine-3-carboxamido)propoxy)butoxy)propyl)cyclohexane-1,4-dicarboxamide] | ≥ 100 µM |  | 96% | 44.9% |

Source: patent US12521393B2, “Cytotoxicity targeting chimeras for CCR2-expressing cells” (GLAXOSMITHKLINE INTELLECTUAL PROPERTY DEVELOPMENT LIMITED, priority 2021, dated 2026)
